Results from publication PMC5566973 (Frontiers in Pharmacology, 2017).
Values joined by “and” are separate entries in the source; they are usually repeats but may differ in a detail not shown here. Equal values may be shown once. Read-outs that look alike come from different tables or passages of the source.

Columns and labels:
[1] = Urinary and fecal excretion in rats; type: in vivo, Sprague-Dawley rats; details: for Cumulative excretion of the analyte, SUM of urine and feces: within 72 h
Protocol: Access to water was maintained all the time. Samples including blank urine and feces before dosing, urine and feces from 0 to 24 h, 24 to 48 h, and 48 to 72 h after dosing were collected and stored at −80°C until analysis.
Urine samples were thawed and an aliquot of 100 μL was processed for detection as described in Section Drug Analysis. Feces were homogenized and then weighed, added 6-folds of acetonitrile, extracted by ultrasonic wave for 1 h and then centrifuged. An aliquot of 100 μL was also processed for detection as described in Section Drug Analysis.

[2] = Metabolic stability in human liver microsomes; details: for residual percentage: human liver microsomes 0.5 mg protein/mL, 2 μM, after incubation; for half-life at 2 μM / microsomal CLint at 2 μM: human, liver microsomes
[3] = Cytotoxicity CCK-8 assay in MDCK cells; type: cell-based, canine; details: dog, MDCK cells, 12 h incubation, read-out: Cell viability
Protocol: (§1) In brief, the cells were seeded on 96-well plates at 1 × 10^5 cells/mL and cultured in 100 μL of culture medium at incubator for 24 h. […] After 12 h incubation, 10 μL of CCK-8 dye was added to each well, and cells were incubated for another 2 h. Cell viability (%) was calculated using the following Equation (1):
(§2) (1) Cell viability (%)=(ODsample−ODblank)/ (ODcontrol−ODblank) ×100%
(§3) ODsample refers to the absorbance of a well with treated cells and CCK-8. ODblank refers to the absorbance of a well with medium and CCK-8 but without cells. ODcontrol refers to the absorbance of a well with untreated cells and CCK-8. The absorbance at 450 nm was measured by a microplate reader (Biotek Instrument; Gene Co., Ltd., VT, USA), and the results are presented as mean ± SD from triplicate wells.

[4] = tested on: MDCK cells; experiment: Cytotoxicity CCK-8 assay in MDCK cells; type: cell-based, canine; details: CCK-8
Protocol: as §1, §2, §3

[5] = target: T1, human BCRP (Homo sapiens, UniProt Q9UNQ0); experiment: Vesicular transport assay, Sf9 membrane vesicles expressing human BCRP; type: in vitro ADME; details: 1 μM, MgATP vs MgAMP
T1 construct: purchased GenoMembrane (Kanagawa, Japan); host or cells: Sf9
T1 sequence (Q9UNQ0 1-655): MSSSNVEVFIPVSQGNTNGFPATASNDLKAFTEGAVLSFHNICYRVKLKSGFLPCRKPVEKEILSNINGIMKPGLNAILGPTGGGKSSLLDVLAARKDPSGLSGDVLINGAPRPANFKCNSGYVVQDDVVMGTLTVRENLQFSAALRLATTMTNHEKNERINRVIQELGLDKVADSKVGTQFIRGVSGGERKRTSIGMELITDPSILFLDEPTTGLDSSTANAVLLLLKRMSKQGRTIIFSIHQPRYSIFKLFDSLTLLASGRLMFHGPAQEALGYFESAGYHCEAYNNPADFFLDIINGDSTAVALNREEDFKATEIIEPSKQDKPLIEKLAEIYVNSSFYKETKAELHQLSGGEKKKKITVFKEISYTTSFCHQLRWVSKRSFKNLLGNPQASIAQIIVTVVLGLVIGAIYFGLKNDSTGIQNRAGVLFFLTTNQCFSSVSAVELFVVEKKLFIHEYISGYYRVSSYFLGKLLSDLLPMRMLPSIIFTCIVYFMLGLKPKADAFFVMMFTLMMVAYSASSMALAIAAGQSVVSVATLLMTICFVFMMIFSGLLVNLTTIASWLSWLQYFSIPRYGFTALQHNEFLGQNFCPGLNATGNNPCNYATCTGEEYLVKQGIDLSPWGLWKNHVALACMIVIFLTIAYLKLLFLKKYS
Protocol: (§4) The vesicular transport assay was implemented as described in the GenoMembrane™ vesicular transport kit protocol (GenoMembrane, Kanagawa, Japan) with minor changes. Briefly, vesicle stocks were thawed and diluted with assay buffer (50 mM MOPS-Tris, 70 mM KCl, and 7.5 mM MgCl2). […] MgAMP instead of MgATP was used as a control. Apart from these, 4 mM glutathione was also included in BCRP and MRP2 assays. Transport was terminated with ice cold assay buffer, and then samples were quickly transferred to a filter plate. Wells were immediately washed 5 times with 200 μL assay buffer and dried. The vesicles on the plate were dissolved in 50 μL of 80% methanol and centrifuged at 2,000 rpm for 2 min after collection, and repeating the above procedures. Mixed the two filtrates together and added the pre-cooled methanol. After centrifugation at 12,000 rpm for 5 min at 4°C, a 5 μL aliquot of supernatant was injected into the UPLC-ESI-MS/MS system for analysis. Furthermore, the uptake of NMQ (MDR1), LY (BCRP), and E217βG (MRP2) was used to evaluate the activity of specific vesicles.

[6] = target: T2, human MDR1 (Homo sapiens, UniProt P08183); experiment: Vesicular transport assay, Sf9 membrane vesicles expressing human MDR1; type: in vitro ADME; details: 1 μM, MgATP vs MgAMP
T2 construct: purchased GenoMembrane (Kanagawa, Japan); host or cells: Sf9
T2 sequence (P08183 whole entry): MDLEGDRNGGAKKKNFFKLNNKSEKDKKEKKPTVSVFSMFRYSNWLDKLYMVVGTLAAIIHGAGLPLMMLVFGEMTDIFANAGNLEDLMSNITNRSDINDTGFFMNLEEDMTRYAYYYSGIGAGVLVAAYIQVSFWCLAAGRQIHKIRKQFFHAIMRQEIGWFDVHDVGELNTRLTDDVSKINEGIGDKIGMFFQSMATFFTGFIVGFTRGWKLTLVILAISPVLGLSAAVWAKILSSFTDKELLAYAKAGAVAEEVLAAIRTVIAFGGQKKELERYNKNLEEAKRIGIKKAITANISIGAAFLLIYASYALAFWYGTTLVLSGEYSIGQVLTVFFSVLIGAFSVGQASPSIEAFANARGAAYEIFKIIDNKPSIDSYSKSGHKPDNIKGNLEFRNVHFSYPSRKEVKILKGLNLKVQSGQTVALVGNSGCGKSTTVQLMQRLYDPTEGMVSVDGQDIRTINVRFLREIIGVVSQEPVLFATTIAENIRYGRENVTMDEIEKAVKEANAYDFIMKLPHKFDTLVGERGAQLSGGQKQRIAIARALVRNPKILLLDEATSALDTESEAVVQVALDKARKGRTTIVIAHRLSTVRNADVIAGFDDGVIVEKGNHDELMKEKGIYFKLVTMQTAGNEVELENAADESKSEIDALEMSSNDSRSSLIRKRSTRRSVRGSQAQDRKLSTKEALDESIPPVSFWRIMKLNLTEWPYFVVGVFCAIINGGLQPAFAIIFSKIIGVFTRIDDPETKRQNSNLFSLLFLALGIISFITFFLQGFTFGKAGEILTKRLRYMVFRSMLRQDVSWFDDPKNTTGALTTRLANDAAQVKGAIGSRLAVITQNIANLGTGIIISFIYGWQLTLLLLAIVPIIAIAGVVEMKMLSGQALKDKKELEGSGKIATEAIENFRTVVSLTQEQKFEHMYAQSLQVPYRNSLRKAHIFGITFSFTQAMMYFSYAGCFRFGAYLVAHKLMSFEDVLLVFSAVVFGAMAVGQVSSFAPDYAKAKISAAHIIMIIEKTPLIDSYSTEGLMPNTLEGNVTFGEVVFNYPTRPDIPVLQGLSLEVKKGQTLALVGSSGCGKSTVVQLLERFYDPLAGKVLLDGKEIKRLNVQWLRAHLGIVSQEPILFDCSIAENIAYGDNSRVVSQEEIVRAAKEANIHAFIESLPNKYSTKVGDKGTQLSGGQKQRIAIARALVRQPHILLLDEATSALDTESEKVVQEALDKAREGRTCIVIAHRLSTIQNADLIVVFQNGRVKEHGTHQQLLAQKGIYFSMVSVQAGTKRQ
Protocol: as §4

[7] = target: T3, human MRP2 (Homo sapiens, UniProt Q92887); experiment: Vesicular transport assay, Sf9 membrane vesicles expressing human MRP2; type: in vitro ADME; details: 1 μM, MgATP vs MgAMP
T3 construct: purchased GenoMembrane (Kanagawa, Japan); host or cells: Sf9
T3 sequence (Q92887 whole entry): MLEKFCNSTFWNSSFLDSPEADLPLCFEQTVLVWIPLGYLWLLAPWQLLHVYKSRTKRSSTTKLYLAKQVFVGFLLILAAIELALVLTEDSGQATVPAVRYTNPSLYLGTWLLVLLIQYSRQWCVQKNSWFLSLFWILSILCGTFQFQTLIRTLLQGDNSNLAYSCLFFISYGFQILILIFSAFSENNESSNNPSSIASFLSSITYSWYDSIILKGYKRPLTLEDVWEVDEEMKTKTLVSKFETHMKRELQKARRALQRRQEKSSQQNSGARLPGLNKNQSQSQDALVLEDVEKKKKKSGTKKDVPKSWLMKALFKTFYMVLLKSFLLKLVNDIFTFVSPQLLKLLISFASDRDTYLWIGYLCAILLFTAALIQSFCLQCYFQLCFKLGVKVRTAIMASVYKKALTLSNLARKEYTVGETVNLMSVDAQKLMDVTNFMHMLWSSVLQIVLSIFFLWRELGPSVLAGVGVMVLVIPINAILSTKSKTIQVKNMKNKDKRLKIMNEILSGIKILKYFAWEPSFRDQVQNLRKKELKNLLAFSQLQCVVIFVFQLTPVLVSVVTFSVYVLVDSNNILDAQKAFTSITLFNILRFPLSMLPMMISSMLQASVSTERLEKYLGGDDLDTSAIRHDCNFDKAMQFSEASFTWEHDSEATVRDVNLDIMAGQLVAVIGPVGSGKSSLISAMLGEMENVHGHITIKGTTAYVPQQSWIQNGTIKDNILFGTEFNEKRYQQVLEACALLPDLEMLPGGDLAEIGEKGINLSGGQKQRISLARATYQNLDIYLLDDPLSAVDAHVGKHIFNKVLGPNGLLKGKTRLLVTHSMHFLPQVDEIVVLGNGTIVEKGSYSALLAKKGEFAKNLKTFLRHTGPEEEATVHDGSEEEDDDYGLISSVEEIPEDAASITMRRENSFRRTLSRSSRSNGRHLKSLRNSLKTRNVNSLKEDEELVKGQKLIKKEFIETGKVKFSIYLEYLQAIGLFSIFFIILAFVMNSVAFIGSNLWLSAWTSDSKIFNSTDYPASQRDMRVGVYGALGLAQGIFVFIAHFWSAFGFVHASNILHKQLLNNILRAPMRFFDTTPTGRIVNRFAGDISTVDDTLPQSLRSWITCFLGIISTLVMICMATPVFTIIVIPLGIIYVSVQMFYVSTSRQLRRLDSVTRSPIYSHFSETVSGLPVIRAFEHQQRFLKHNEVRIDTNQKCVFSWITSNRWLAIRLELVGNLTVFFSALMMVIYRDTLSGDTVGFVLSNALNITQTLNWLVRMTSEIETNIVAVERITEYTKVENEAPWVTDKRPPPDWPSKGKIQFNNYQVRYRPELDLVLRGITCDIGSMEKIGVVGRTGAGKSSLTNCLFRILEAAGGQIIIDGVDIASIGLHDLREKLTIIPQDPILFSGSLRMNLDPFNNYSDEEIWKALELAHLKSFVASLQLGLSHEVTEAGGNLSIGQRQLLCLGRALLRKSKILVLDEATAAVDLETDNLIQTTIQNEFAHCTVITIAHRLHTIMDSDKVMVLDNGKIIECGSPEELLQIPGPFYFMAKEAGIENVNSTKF
Protocol: as §4

[8] = design: method as in Wu et al., 2009; details: wild-type and CYP2D6-humanized mice, intraperitoneal injection, 5 or 15 mg/kg; ref Wu et al., 2009; cited from earlier work
[9] = after oral harmaline 40.0 mg/kg, 24 h
[10] = after oral harmaline 40.0 mg/kg, 48 h
[11] = after oral harmaline 40.0 mg/kg, 72 h
[12] = after oral harmaline 40.0 mg/kg
[13] = after oral harmine 40.0 mg/kg, 24 h
[14] = after oral harmine 40.0 mg/kg, 48 h
[15] = after oral harmine 40.0 mg/kg, 72 h

Row | SMILES | Cumulative excretion in feces (%) of the analyte [1, 9] [%] | Cumulative excretion in urine (%) of the analyte [1, 9] [%] | Cumulative excretion in feces (%) of the analyte [1, 10] [%] | Cumulative excretion in urine (%) of the analyte [1, 10] [%] | Cumulative excretion in feces (%) of the analyte [1, 11] [%] | Cumulative excretion in urine (%) of the analyte [1, 11] [%] | Cumulative excretion of the analyte, SUM of urine and feces [1, 12] [%] | residual percentage [2] [%] | half-life at 2 μM [2] [h] | microsomal CLint at 2 μM [2] [µL/min/mg] | concentration without toxicity or decreased cell viability [4] | drug concentration producing notable toxicity [4] | other results
1 | COc1ccc2c(c1)[nH]c1c(C)nccc12 [Harmine] | 0.01 ± 0.01 | 0.03 ± 0.01 | 0.02 ± 0.01 | 0.04 ± 0.01 | 0.02 ± 0.01 | 0.05 ± 0.01 | 0.07 ± 0.01 | 54.25 | 1.65 | 14 | up to 5 μM | > 25 µM | Cumulative excretion in feces (%) of the analyte [1, 13]: 0.57 ± 0.37%; Cumulative excretion in urine (%) of the analyte [1, 13]: 0.02 ± 0.02%; Cumulative excretion in feces (%) of the analyte [1, 14]: 0.65 ± 0.36%; Cumulative excretion in urine (%) of the analyte [1, 14]: 0.02 ± 0.03%; Cumulative excretion in feces (%) of the analyte [1, 15]: 0.65 ± 0.36%; Cumulative excretion in urine (%) of the analyte [1, 15]: 0.03 ± 0.03%; Cumulative excretion of the analyte, SUM of urine and feces ([1]; after oral harmine 40.0 mg/kg): 0.69 ± 0.36%; viability at 12 h ([3]; up to 5 μM): > 90%
2 | COc1ccc2c3c([nH]c2c1)C(C)=NCC3 [Harmaline] | 0.14 ± 0.10 | 4.00 ± 4.36 | 0.19 ± 0.12 | 4.71 ± 4.20 | 0.19 ± 0.12 | 4.85 ± 4.17 | 5.05 ± 4.12 | 64.16 | 2.46 | 9.4 | up to 25 μM | higher than 100 μM | uptake ratio (UR) [5]: < 2.00 and 1.42; uptake ratio (UR) [6]: < 2.00 and 1.97; viability at 12 h ([3]; up to 25 μM): > 90%; uptake ratio (UR) [7]: < 2.00 and 1.35; F-values [8]: 73.7% and 98.2% and 68.6% and 60.0%
